Source: patent US20210198277A1, “AMINE-SUBSTITUTED ARYL OR HETEROARYL COMPOUNDS” (Epizyme, Inc., priority 2016, published 2021)

Experiments:
[1] = target: T1, human EHMT2 913-1193 (Homo sapiens, UniProt Q96KQ7); experiment: EHMT2 enzyme assay on histone peptide substrate (EHMT2 PEP); type: biochemical; conditions: recombinant human EHMT2 913-1193, histone H3 1-15 peptide, balanced conditions; read-out: EHMT2 PEP (IC50 μM)
T1 construct: recombinant purified human EHMT2 913-1193, Viva; purchased Viva
T1 sequence (Q96KQ7 913-1193): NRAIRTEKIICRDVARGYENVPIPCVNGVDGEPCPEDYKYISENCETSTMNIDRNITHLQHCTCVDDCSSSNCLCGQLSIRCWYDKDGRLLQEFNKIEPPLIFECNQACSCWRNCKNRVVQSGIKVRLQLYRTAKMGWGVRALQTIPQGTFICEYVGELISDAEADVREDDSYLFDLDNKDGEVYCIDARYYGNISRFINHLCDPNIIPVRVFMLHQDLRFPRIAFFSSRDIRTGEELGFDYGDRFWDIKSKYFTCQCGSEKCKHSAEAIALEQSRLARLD
Summary of the method: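 Inhibition is measured as reduced tritium incorporation into a biotinylated histone peptide from ^3H-SAM. The enzyme (0.031 nM) sees compound for 30 minutes before a 60-minute room-temperature reaction, which unlabeled SAM quenches prior to streptavidin Flashplate capture.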

[2] = target: T2, EHMT1 (Homo sapiens, UniProt Q9H9B1); experiment: EHMT1 enzyme assay on peptide substrate (EHMT1 PEP); type: biochemical; conditions: read-out: EHMT1 PEP (IC50 μM)
T2 sequence (Q9H9B1 1-1298): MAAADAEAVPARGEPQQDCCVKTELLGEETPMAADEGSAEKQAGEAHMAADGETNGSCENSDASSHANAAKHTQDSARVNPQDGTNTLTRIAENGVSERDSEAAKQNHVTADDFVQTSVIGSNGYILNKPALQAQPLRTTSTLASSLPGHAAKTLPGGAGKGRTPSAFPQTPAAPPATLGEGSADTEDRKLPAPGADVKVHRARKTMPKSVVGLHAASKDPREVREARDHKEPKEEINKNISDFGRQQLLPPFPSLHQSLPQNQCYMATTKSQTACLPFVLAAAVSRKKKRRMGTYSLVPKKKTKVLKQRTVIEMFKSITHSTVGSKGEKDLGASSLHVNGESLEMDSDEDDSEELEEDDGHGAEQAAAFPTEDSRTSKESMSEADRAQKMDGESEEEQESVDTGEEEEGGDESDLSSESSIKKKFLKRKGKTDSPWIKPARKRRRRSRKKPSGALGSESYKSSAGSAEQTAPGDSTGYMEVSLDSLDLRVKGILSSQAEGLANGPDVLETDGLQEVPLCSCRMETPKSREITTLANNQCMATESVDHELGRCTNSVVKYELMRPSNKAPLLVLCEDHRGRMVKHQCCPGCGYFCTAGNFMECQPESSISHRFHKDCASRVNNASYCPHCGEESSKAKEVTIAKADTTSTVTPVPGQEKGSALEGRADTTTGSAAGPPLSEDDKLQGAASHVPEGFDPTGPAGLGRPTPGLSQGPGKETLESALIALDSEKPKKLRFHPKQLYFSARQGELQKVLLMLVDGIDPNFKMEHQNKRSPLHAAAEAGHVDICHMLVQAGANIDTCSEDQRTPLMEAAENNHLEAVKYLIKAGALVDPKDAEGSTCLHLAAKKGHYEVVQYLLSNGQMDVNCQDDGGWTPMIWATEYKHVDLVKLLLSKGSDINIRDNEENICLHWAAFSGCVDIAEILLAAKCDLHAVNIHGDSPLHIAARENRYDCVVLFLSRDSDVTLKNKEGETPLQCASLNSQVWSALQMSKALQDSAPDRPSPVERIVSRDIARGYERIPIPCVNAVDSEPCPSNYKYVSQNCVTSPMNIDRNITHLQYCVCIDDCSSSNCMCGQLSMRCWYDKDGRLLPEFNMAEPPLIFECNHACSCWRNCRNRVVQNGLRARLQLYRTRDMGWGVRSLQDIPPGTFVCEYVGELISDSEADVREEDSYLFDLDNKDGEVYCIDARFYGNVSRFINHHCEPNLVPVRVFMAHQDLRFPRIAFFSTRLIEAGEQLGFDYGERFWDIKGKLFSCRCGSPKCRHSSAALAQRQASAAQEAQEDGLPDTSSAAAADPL

| SMILES | IC50 [1] | IC50 [2] |
| --- | --- | --- |
| CNc1cc(C)nc(Nc2ccc(OC)c(OCCCN3CC4(CC4)C3)c2)n1 [Compound 574] | 1 to 10 µM | 1 to 10 µM |
| CNc1ccnc(NC2(C)CCCNC2)n1 (centres unmarked) [Compound 546, N^4-methyl-N^2-(3-methylpiperidin-3-yl)pyrimidine-2,4-diamine] | > 10 µM | > 10 µM |
| CCCC1(Nc2nccc(NC)n2)CCNCC1 [Compound 545] | > 10 µM | > 10 µM |
| CCN1CC(COc2cc(Nc3cccc4nncn34)ncc2OC)C1 [Compound 584] | > 10 µM | > 10 µM |
| COc1cc(Nc2nc(C)cc3[nH]ncc23)ncc1OCCCN1CCCC1 [Compound 565] | 1 to 10 µM | 1 to 10 µM |
| CCN1CC[C@@H](COc2cc(Nc3nc(C)cc(NC)n3)ccc2OC)C1 [Compound 571] | < 0.1 µM | < 0.1 µM |
| C/C=C/C(=O)Nc1ccc(OC)c(OCCCN2CCCC2)c1 [Compound 598] | > 10 µM | > 10 µM |

Further lines, results first:

| IC50 [1] | IC50 [2] | SMILES |
| --- | --- | --- |
| 0.1 to 1 µM | 0.1 to 1 µM | COc1ncc(Nc2nc(C)cc(NCC3CCOCC3)n2)cc1OC[C@@H]1CCN(C2CCC2)C1 [Compound 595] |
| 0.1 to 1 µM | < 0.1 µM | CCc1cc(NC)nc(Nc2cnc(OC)c(OC[C@@H]3CCN(CC)C3)c2)n1 [Compound 601] |
| 0.1 to 1 µM | < 0.1 µM | COc1ncc(Nc2nc(C)cc(NCC3CCOCC3)n2)cc1OC[C@@H]1CCN(C2CCC2)C1 [Compound 594] |
| > 10 µM | > 10 µM | c1nc(NC2CCOCC2)ncc1OCC1CCN(C2CC2)C1 (centres unmarked) [Compound 557] |
| 0.1 to 1 µM | < 0.1 µM | CNc1cc(C)nc(Nc2ccc(OC)c(OC[C@@H]3CCN(C4(C)CC4)C3)c2)n1 [Compound 568] |
| 1 to 10 µM | 1 to 10 µM | COc1ccc(NC2CCCNC2)cc1OCCCN1CCCC1 (centres unmarked) [Compound 573] |
